# Results from US9075071B1, “Methods for diagnosis and treatment of cancer” (University of Mississippi Medical Center, priority 2012, dated 2015).
# Counter-ions that a name gives are not always drawn. Peptide text beside a SMILES is read from it. * marks the point of attachment. Cbz = O=C(OCc1ccccc1)*
# How the values were obtained:
# leukemia cells = conditions: cited from earlier work
# geminin protein = assay: Geminin level by western blot of sonicated extracts; type: cell-based, human
# Description: To study the consequence of silencing or inactivating c-Abl on geminin overexpressing cells, experiments were first undertaken to analyze what happens to geminin protein following c-Abl silencing or inactivation. […] Another Dox treated set of cells were transfected with c-Abl dominant negative construct (i.e. K209R, see Srinivasan and Plattner, 2006) during the last 48 h. Sonicated extracts were then prepared from all cultures and geminin level was measured using western blot analysis. […] Similar effects were also observed in cells endogenously overexpressing geminin.
# [1] = system: induced Gem9 cells (geminin overexpressing HME cells); assay: Cell cycle progression, PI labeling and FACS; type: cell-based, human; conditions: Gem9 induced 72 h; for effect on cell cycle progression: then drug 24 h, vs DMSO, ZM447439 5 μM, Nocodazole 250 ng/ml, Taxol 10 μM
# Description: (§1) Breast cancer cell lines were maintained in RPMI medium (Invitrogen, Carlsbad, Calif.) supplemented with 10% FBS and antibiotics. Maintenance of HME cells was performed as described previously. Cells were treated with 5 μM […] (Toronto Research Chemicals Inc., North York, ON), 100 ng/ml colcemid (Sigma, St. Louis, Mo.), 250 ng/ml Nocodazole (Sigma), 10 μM Taxol (Sigma). PI or FITC-conjugated anti-BrdU FACS analysis was performed as in [20]. Annexin-V was performed according to manufacturer's instructions (BD Biosciences, 556547, San Jose, Calif.).
# (§2) To evaluate that in detail, HME (or Gem9−Dox) and induced (72 h) Gem9 cells were incubated with 5 μM of ZM447439 (a specific and potent inhibitor of AurB) for an additional 24 h. To measure the effect of ZM447439 on cell cycle progression aliquots from each culture were labeled with PI and analyzed by FACS.
# (§3) To evaluate whether these effects were restricted to AurB inhibitors or could be seen with drugs that alter the integrity of the microtubules apparatus as well, HME and induced Gem9 cells were treated with DMSO (control), Nocodazole (a microtubules depolymerizing agent) or Taxol (a microtubules stabilizing agent) for another 24 h. […] However, both treatments also had modest effect on geminin overexpression cells (FIGS. 9C and 9D).
# (§4) Low number of dying cells was detected in parental or Gem9 cells in the absence of Dox (FIGS. 13E/1 and 13E/5, 13F/1 and 13F/5 and 13G) or in HME cells in the presence of Dox (FIGS. 13E/2 and 13E/6, 13F/2 and 13F/6 and 13G). […] It was thought that degradation of geminin following c-Abl silencing or inactivation promoted cell death in geminin overexpressing and not normal cells, at least in part, because cells became addicted to high levels of geminin.
# HME cells = assay: Cell cycle progression, PI labeling and FACS; type: cell-based, human; conditions: for effect on cell cycle progression: normal HME cells, 24 h, vs DMSO, ZM447439 5 μM, Nocodazole 250 ng/ml, Taxol 10 μM
# Description: as §1, §2, §3, §4
# [2] = system: uninduced Gem9 (Gem9-Dox, HME) cells; assay: Cell survival, PI/annexin V labeling and FACS; type: cell-based, human; conditions: 24 h, ZM447439 5 μM, Nocodazole 250 ng/ml
# Description: as §1
# (§5) To measure the effect on ZM447439 on cell survival, aliquots from each culture were labeled with PI/annexin V and analyzed by FACS. […] Indeed, in ZM447439 treated cells only 40±5% of the cells were PI^−/V^−, and 41±7% were PI^+/V^− and 20±6% were PI^−/V^++PI^+/V (FIG. 9B). […] Indeed, in ZM447439 treated cells 66±4% of the cells were PI^−/V^−, 24±3% were PI^+/V^− and 10±3% were PI^−/V^++PI^+/V^+ (FIG. 9E).
# [3] = system: induced Gem9 (Gem9+Dox) cells; assay: Cell survival, PI/annexin V labeling and FACS; type: cell-based, human; conditions: Gem9 induced 72 h, then drug 24 h; ZM447439 5 μM, Nocodazole 250 ng/ml
# Description: as §1, §5
# [4] = system: induced Gem9 cells (geminin overexpressing); assay: Metaphase chromosome spread, chromosome condensation; type: cell-based, human
# Description: (§6) […] Cells were then trypsinized and washed and gently resuspended in PBS. 10 ml of 0.075M KCl was drop wise added and the cells were incubated at 37° C. (in a water bath) for 5-10 mins. Cells were then centrifuged at 900 rpm for 5 minutes and KCl was removed. 5 ml of freshly prepared fixative (3:1 Methanol/Acetic acid) was added drop wise to the cells and carefully mixed. Cells were centrifuged at 900 rpm for 5 minutes and the fixative was removed. This step was repeated 2 more times. Finally, all but 300 μl of the fixative media was removed and cells were dropped from approximately 18 inches onto an angled, humidified microscope slide. Slides were air-dry for at least 10 mins and cells were stained with propidium iodide (PI) or Giemsa.
# uninduced Gem9 cells = assay: as above; type: cell-based, human; conditions: 10 μM colcemid 1 h
# Description: as §6
# SCID mice = conditions: mouse, in vivo
# Description: Geminin overexpressing cells were injected subcutaneously or orthotopically (in mammary gland) in SCID mice as described above. When tumors reached 0.5-0.75 cm^3 in volume the treatments were initiated. […] Mice were treated for 5 days and were rested for 2 days and tumor size was measured daily using calipers. At the end of the experiments tumors were dissected out, weighed and fixed in formalin, and cut at 4 μm for histological and immunohistochemical analysis.
# [5] = system: Gem9/LT subcutaneous tumors; assay: Treatment of subcutaneous geminin-driven tumors in SCID mice; type: in vivo, mouse; conditions: imatinib 50 mg/kg/day, day 12
# Description: (§7) All animal experiments were approved by the University of Hawaii IACUC committee and University of Mississippi Medical Center IACUC committee. Six- to eight-week-old anaesthetized immune-compromised athymic SCID (NOD.CB17-Prkdc^scid/J, Jackson Laboratory) mice were injected with human mammary epithelial (HME) cells (5×10^6) resuspended in 200 μl of HME medium/matrigel (1:1) using a 25-gauge needle. Tumor initiation was defined as the time when tumors were 3 mm in diameter. Mice were sacrificed when the tumors grew to greater than 1.5 cm in diameter or after 12 wks of monitoring. Tumor volume was calculated with the formula 4/3πr^3 (where r is the tumor radius). At the end of the experiments tumors were dissected out, weighed and then fixed in formalin, and subsequently cut at 4 μm for histological and immunohistochemical analysis.
# (§8) Tumor formation was analyzed with IVIS luciferase machine (Xenogen, Alameda, Calif.) weekly and tumor size was measured every third day by calipers. To analyze tumor formation using the in vivo system, mice were intraperitoneally injected using a 30G needle with 100 μl of D-luciferin solution (Xenogen) prepared at 15 mg/mL in PBS. […]
# (§9) Geminin overexpressing cells were injected subcutaneously or orthotopically (in mammary gland) in SCID mice as described above. […] Mice were treated for 5 days and were rested for 2 days and tumor size was measured daily using calipers. […]
# induced Gem9 cells [6] = assay: PI / FITC-anti-BrdU FACS, tetraploid/aneuploid cells; type: cell-based, human; conditions: Gem9 induced 72 h (approximately 35% without treatment); imatinib 10 μM last 24 h, c-Abl silencing 72 h
# Description: BrdU (20 μM) was added to all cultures during the last 24 h and cultures were collected, labeled with PI and FITC-anti-BrdU antibody and analyzed by FACS.
# Gem9/LT mammary tumors = assay: Treatment of orthotopic (mammary) geminin-driven tumors in SCID mice; type: in vivo, mouse
# Description: as §7, §8, §9
# p-(S10)-H3 = assay: FITC-anti-p-H3-(S10) labeling and FACS; type: cell-based, human; conditions: imatinib 10 μM 24 h, c-Abl silencing 72 h
# Description: Diminution of (S10)-H3 phosphorylation leads to chromosome condensation failure, lack of chromosome segregation and induction of aneuploidy (Giet et al., 2001). […] Aliquots of each culture were then fixed, labeled with FITC-anti-p-H3-(S10) specific antibody and analyzed by FACS.
# parental HME cells = assay: Dying cells under light microscope and TUNEL; type: cell-based, human; conditions: imatinib 10 μM last 48 h, c-Abl siRNA 96 h
# Description: (§10) The Fluorescein FragEL™ DNA Fragmentation Detection kit (Calbiochem) was used according to the supplier's protocol.
# as §4
# induced Gem9 cells [7] = assay: Dying cells under light microscope and TUNEL; type: cell-based, human; conditions: Gem9 induced 96 h; imatinib 10 μM last 48 h, c-Abl silencing 96 h
# Description: as §10, §4
structure (smiles),measurement,setting,value
CCN(CCCOc1ccc2c(Nc3cc(CC(=O)Nc4cccc(F)c4)n[nH]3)ncnc2c1)CCOP(=O)(O)O [AZD1152],effect on DNA content of cells,leukemia cells,induce accumulation of cells with greater than 4N DNA content
CC(C)C[C@@H](C=O)NC(=O)[C@H](CC(C)C)NC(=O)[C@H](CC(C)C)NC(=O)OCc1ccccc1 [MG132] (Cbz-Leu-Leu-Leu-aldehyde),geminin protein level,"geminin protein; HME as well as induced Gem9 (72 h) cells, 10 μM MG132 together with 10 μM imatinib, last 24 h",an increase instead of a decrease
COC(=O)Nc1nc2ccc(C(=O)c3cccs3)cc2[nH]1 [Nocodazole],effect on cell cycle progression,[1],modest effect
same,effect on cell cycle progression,HME cells,"triggered accumulation of normal HME cells in G2/M phase, followed by tetraploidy and then cell death"
same,alive cells (PI-/V-),[2],75±5%
same,apoptotic cells (PI-/V+ + PI+/V+),[2],20±5%
same,necrotic cells (PI+/V-),[2],6±4%
same,alive cells (PI-/V-),[3],78±6%
same,apoptotic cells (PI-/V+ + PI+/V+),[3],10±2%
same,necrotic cells (PI+/V-),[3],12±3%
CC(=O)O[C@H]1C(=O)[C@@]2(C)[C@H]([C@H](OC(=O)c3ccccc3)[C@]3(O)C[C@H](OC(=O)[C@H](O)[C@@H](NC(=O)c4ccccc4)c4ccccc4)C(C)=C1C3(C)C)[C@]1(OC(C)=O)CO[C@@H]1C[C@@H]2O [Taxol],effect on cell cycle progression,[1],modest effect
same,effect on cell cycle progression,HME cells,"triggered accumulation of normal HME cells in G2/M phase, followed by tetraploidy and then cell death"
COc1cc2c(Nc3ccc(NC(=O)c4ccccc4)cc3)ncnc2cc1OCCCN1CCOCC1 [ZM447439],effect on cell cycle progression,[1],little effect
same,effect on cell cycle progression,HME cells,triggered accumulation of normal HME cells in G2/M phase followed by tetraploidy and then cell death
same,alive cells (PI-/V-),[2],40±5%
same,apoptotic cells (PI-/V+ + PI+/V+),[2],20±6%
same,necrotic cells (PI+/V-),[2],41±7%
same,alive cells (PI-/V-),[3],66±4%
same,apoptotic cells (PI-/V+ + PI+/V+),[3],10±3%
same,necrotic cells (PI+/V-),[3],24±3%
CN[C@H]1CCc2cc(OC)c(OC)c(OC)c2-c2ccc(OC)c(=O)cc21 [colcemid],chromosome condensation,"[4]; Gem9 with Dox 7 days, 10 μM colcemid 1 h",failed to condense the chromosomes
same,chromosome condensation,uninduced Gem9 cells,induced condensation
COc1cccc2c1C(=O)c1c(O)c3c(c(O)c1C2=O)C[C@@](O)(C(=O)CO)C[C@@H]3O[C@H]1C[C@H](N)[C@H](O)[C@H](C)O1 [doxorubicin],toxicity to the mice,SCID mice,adverse side effects including death
"Cc1ccc(NC(=O)c2ccc(CN3CCN(C)CC3)cc2)cc1Nc1nccc(-c2cccnc2)n1 [imatinib, imatinib mesylate]","effect on cell cycle (PI FACS), sub-G1 and >4N cells","[1]; imatinib 10 μM last 24 h, c-Abl silencing 72 h",induced significant increase in sub-G1 and reduced the level of >4N cells
same,effect on cell cycle (PI FACS),"HME cells; HME cells, imatinib 10 μM last 24 h, c-Abl silencing 72 h",induced G1-arrest
same,endogenous geminin protein level,"geminin protein; HME cells, Dox 72 h, imatinib 10 μM last 24 h, c-Abl silencing 72 h",Significant reduction
same,geminin protein level,"geminin protein; MCF7 (ER+) breast cancer cells, imatinib 10 μM or c-Abl silencing",significantly reduced the level of geminin protein
same,geminin protein level,"geminin protein; MDAMB231 (ER-) breast cancer cells, imatinib 10 μM or c-Abl silencing",significantly reduced the level of geminin protein
same,overexpressed geminin protein level,"geminin protein; induced Gem9 cells, Dox 72 h, imatinib 10 μM last 24 h, c-Abl silencing 72 h",Significant reduction
same,subcutaneous tumors after treatment,[5],barely detectable
same,cells with greater than 4N DNA content (tetraploid/aneuploid),induced Gem9 cells [6],approximately 6%
same,mammary tumor size compared with no treatment,Gem9/LT mammary tumors; imatinib 50 mg/kg/day,5-10 fold
same,killing of geminin-driven tumors (tumor size),"Gem9/LT mammary tumors; start at 0.5 to 0.7 cm^3, imatinib 50 mg/kg/day, doxorubicin 5 mg/kg/day, 14 days",as effective in killing geminin-driven tumors as doxorubicin
same,p-(S10)-H3-positive cells,p-(S10)-H3; induced Gem9 cells (approximately 2% without treatment),approximately 13%
same,p-(S10)-H3-positive cells,p-(S10)-H3; parental HME cells,reduced the percentage of p(S10)-H3-positive cells
same,chromosome condensation,"[4]; Gem9 with Dox 7 days plus colcemid, imatinib 10 μM last 24 h, c-Abl silencing last 72 h",restored chromosome condensation
same,"number of dying cells (light microscope, TUNEL+)",parental HME cells,Low level of dying cells
same,"number of dying cells (light microscope, TUNEL+)",induced Gem9 cells [7],high number of dying cells
